Reference: US9422262B2, “Compounds and methods for treating diseases mediated by protease activated receptors” (The Broad Institute, Inc., priority 2010, dated 2016)

Target: T1, Par1 (thrombin) receptor (Homo sapiens, UniProt P25116)
T1 construct: endogenous in cells; host or cells: platelets (platelet-rich plasma; washed platelets from individual donors)
T1 sequence (P25116 22-425): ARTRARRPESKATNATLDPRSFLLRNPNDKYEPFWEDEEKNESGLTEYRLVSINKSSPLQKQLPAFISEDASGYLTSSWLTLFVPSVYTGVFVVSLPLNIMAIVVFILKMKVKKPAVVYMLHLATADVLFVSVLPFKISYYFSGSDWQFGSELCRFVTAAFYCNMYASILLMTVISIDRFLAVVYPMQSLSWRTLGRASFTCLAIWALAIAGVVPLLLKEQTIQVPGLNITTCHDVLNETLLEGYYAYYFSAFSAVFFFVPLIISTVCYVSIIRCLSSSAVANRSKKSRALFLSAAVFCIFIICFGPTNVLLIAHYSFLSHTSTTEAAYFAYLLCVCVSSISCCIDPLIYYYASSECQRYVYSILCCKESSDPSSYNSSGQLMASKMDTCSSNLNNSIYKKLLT
Test: SFLLRN-mediated granule secretion, platelet-rich plasma, luciferin-luciferase ATP readout (primary assay)
Assay type: cell-based
Conditions: Table D; read-out: Activity (measured IC50 category)
Protocol: The compounds were tested in two independent IC50 determination experiments using the primary assay measuring SFLLRN-mediated granule secretion. For this assay, platelet-rich plasma is treated with putative inhibitors prior to activation by the SFLLRN peptide, which targets the Par1 (thrombin) receptor. Upon activation, platelets secrete dense granules, which are concentrated with ATP. Platelet activation and possible inhibition are monitored by a luciferin-luciferase assay (CellTiter-Glo without lysis reagent) to measure the ATP secreted from activated platelets. Luminescence measurements are made using a plate reader (Envision, PerkinElmer) capable of detecting luminescence.

Structure (SMILES)	IC50 [µM]
CCCC(=O)Nc1cccc(NC(=O)c2c(Cl)cccc2Br)c1	1 to 5
CN(C(=O)c1ccccc1Br)c1cccc(NC(=O)C2CCCC2)c1	> 10
CCCC(=O)Nc1cccc(NC(=O)c2cc(F)ccc2Br)c1	0.001 to 1
CCCC(=O)Nc1cccc(NC(=O)c2ccc(F)cc2Br)c1	0.001 to 1
CCCC(=O)Nc1cccc(NC(=O)c2ccc(C(F)(F)F)cc2)c1	> 10
CCCC(=O)Nc1cccc(NC(=O)c2ccccc2-c2ccccc2)c1	> 10
CCC(C)(C)C(=O)Nc1cccc(NC(=O)c2ccccc2Br)c1	> 10
CCCC(=O)Nc1cccc(NC(=O)c2ccccc2S(C)(=O)=O)c1	> 10
CCCNC(=O)c1cccc(NC(=O)c2ccccc2Cl)c1	1 to 5
CCC(=O)Nc1cccc(NC(=O)c2ccccc2Br)c1	1 to 5
CCCC(=O)Nc1cccc(NC(=O)c2ccccc2F)c1	0.001 to 1
CCCC(=O)Nc1cccc(NC(=O)c2ccccc2OC(F)(F)F)c1	0.001 to 1
O=C(Nc1cccc(NC(=O)C2CCCC2)c1)c1ccccc1Br	0.001 to 1
CCCC(=O)Nc1ccc(Cl)c(NC(=O)c2ccccc2C)c1	> 10
CCCC(=O)Nc1ccc(NC(=O)c2ccccc2Br)cc1	> 10
CCCC(=O)Nc1cccc(NC(=O)c2cc(Cl)ccc2Br)c1	0.001 to 1
CCCC(=O)Nc1cccc(N(C)C(=O)c2ccccc2Br)c1	> 10
CCCC(=O)Nc1cccc(NC(=O)c2ccc(OC)cc2)c1	> 10
O=C(Nc1ccccc1)c1ccccc1Br	1 to 5
CCCC(=O)Nc1cccc(NC(=O)c2ccccc2Br)c1 [drawing 135]	0.001 to 1
Cc1ccccc1C(=O)Nc1cccc(NC(=O)CC(C)C)c1	1 to 5
CCCC(=O)Nc1cccc(NC(=O)c2ccco2)c1	> 10
CCCC(=O)Nc1cccc(NC(=O)c2ccccc2CC)c1	0.001 to 1
CCCC(=O)Nc1cccc(NC(=O)c2ccc(S(C)(=O)=O)cc2)c1	> 10

Structure (SMILES)	IC50 [µM]
CCCC(=O)Nc1cccc(NC(=O)c2c(C)cccc2C)c1	1 to 5
CCCC(=O)Nc1ccc(Cl)c(NC(=O)c2ccccc2Br)c1	> 10
CC(C)CC(=O)Nc1cccc(NC(=O)c2ccccc2Br)c1 [drawing 174]	0.001 to 1
CCCC(=O)Nc1cccc(NC(=O)c2cccc(S(C)(=O)=O)c2)c1	> 10
CCCC(=O)Nc1cccc(NC(=O)c2ccccc2Cl)c1	1 to 5
CCCC(=O)Nc1cccc(NCc2ccccc2Br)c1	> 10
CC(=O)Nc1ccc(NC(=O)c2ccccc2Br)cc1	> 10
O=C(Nc1cc(NC(=O)C2CCCC2)ccn1)c1ccccc1Br	> 10
CCCCNc1cccc(NC(=O)c2ccccc2Br)c1	0.001 to 1
O=C(Nc1cccc(NC(=O)c2ccccc2Br)c1)c1ccccc1	> 10
CCCC(=O)Nc1cccc(NC(=O)c2cccc(Cl)c2Cl)c1	1 to 5
CCCC(=O)Nc1ccnc(NC(=O)c2ccccc2Br)c1	> 10
CCOC(=O)Nc1cccc(NC(=O)c2ccccc2Br)c1	1 to 5
CCCC(=O)Nc1cccc(NC(=O)c2cnc3ccccc3c2)c1	> 10
CCC(=O)Nc1cc(NC(=O)c2ccccc2C)ccc1C	> 10
CC(=O)Nc1cccc(NC(=O)c2ccccc2Cl)c1	> 10
CCCC(=O)Nc1cccc(NC(=O)c2ccccc2C)c1	0.001 to 1
CCCC(=O)Nc1cccc(NC(=O)c2cccnc2)c1	> 10
CCCC(=O)Nc1cccc(NC(=O)c2cc(C)ccc2Br)c1	0.001 to 1
CCCC(=O)Nc1cccc(NC(=O)c2ccccc2C(F)(F)F)c1	1 to 5
CCCC(=O)Nc1cccc(NC(=O)c2ccc(C)cc2)c1	> 10
O=C(Nc1ccnc(NC(=O)c2ccccc2Br)c1)c1ccccc1	> 10
CCCC(=O)Nc1cccc(NC(=O)c2ccccc2C(=O)N(C)C)c1	> 10
CCCC(=O)N(C)c1cccc(NC(=O)c2ccccc2Br)c1	> 10

Test system: Gα12 signaling downstream of PAR1
Test: PAR1-mediated transmembrane resistance (TER) in MDCK cells overexpressing Gα12
Assay type: cell-based
Conditions: FIG. 3B
Description: (§1) This pattern of inhibition is consistent with that of an allosteric inhibitor. […] This observation raised the possibility that compound 1 blocks PAR1 signaling through Gαq (which mediates platelet aggregation downstream of PAR1), but not Gα12/13 (which mediates shape change downstream of PAR1). A previously identified PAR1 inhibitor, 3,5-difluoro aminoisoxazole (3,5-DFAI), inhibited both shape change and aggregation. Shape change that occurred in the presence of compound 1 was blocked by the Rho kinase inhibitor Y27632, confirming participation of Rho kinase downstream of Gα12/13 in compound-1-resistance shape change (FIG. 3A). […] PAR1-mediated decrease in TER in these cells is dependent on Gα12. […] In contrast, 3,5-DFAI inhibited SFLLRN-mediated decrease in TER (FIG. 3B) and compound 1 inhibited Gαq-mediated Ca^2+ flux in these MDCK cells (FIG. 3C).

Structure (SMILES)	PAR1-mediated (SFLLRN) change in TER
Nc1c(F)noc1F [3,5-DFAI, 3,5-difluoro aminoisoxazole]	inhibited

Test system: thrombus formation
Test: Thrombus formation following laser-induced injury of the cremaster arteriole in mice
Assay type: in vivo
Conditions: single infusion of 5 mg/kg, FIG. 5A
Description: PAR1 is the thrombin receptor on human platelets and serves an important function in mediating thrombus formation. We tested compound 1 to determine whether it inhibited thrombus formation following laser-induced injury of the cremaster arteriole in mice. The dominant PAR receptor on mouse platelets is PAR4. However, since compound 1 acts at a non-orthosteric site and mouse PAR4 differs from human PAR4, we reasoned that compound 1 may be able to block mouse PAR4. […] When infused into mice at a concentration of 5 mg/kg, compound 1 inhibited platelet accumulation during thrombus formation by >90% (FIG. 4B). Infusion of 5 mg/kg also impaired fibrin generation during thrombus formation (FIG. 4C). Thus, compound 1 blocks both cellular- and coagulation protein-mediated arms of thrombus formation. […] The compound was therefore infused every 30 minutes during the course of these experiments. The short half-life of compound 1 in vivo may be useful in scenarios in which anticoagulation is only required for a short period of time or when anticoagulation needs to be reversed quickly, such as anticoagulation prior to invasive procedures or surgery.
(§2) Since there are also situations in which longer term anticoagulation is desired, we performed further studies in the thrombus formation model to assess analogs of compound 1 that may have a more long-lived effect. […] This instability in mouse plasma may have contributed to its short half-life of efficacy in vivo.

Structure (SMILES)	impairment of platelet accumulation during thrombus formation [%]
CC(C)CC(=O)Nc1cccc(NC(=O)c2ccccc2Br)c1 [2-bromo-N-(3-(3-methylbutanamido)phenyl)benzamide]	> 90

Same assay, conditions: single infusion of 5 mg/kg, FIG. 5B

Structure (SMILES)	impairment of fibrin generation during thrombus formation [%]
CC(C)CC(=O)Nc1cccc(NC(=O)c2ccccc2Br)c1 [2-bromo-N-(3-(3-methylbutanamido)phenyl)benzamide]	> 90

Test system: not listed separately
Test: Stability in mouse plasma
Assay type: in vitro ADME
Conditions: not given
Description: as §2

Structure (SMILES)	remaining after 5 hour incubation in mouse plasma [%]
CC(C)CC(=O)Nc1cccc(NC(=O)c2ccccc2Br)c1 [2-bromo-N-(3-(3-methylbutanamido)phenyl)benzamide]	64.6

Target: T2, PAR1 (Homo sapiens, UniProt P25116)
T2 sequence (P25116 22-425): T1 sequence (P25116 22-425)
Test: PAR1-mediated platelet aggregation and shape change
Assay type: cell-based
Design: endogenous in cells; host or cells: platelets (platelet-rich plasma; washed platelets from individual donors)
Conditions: FIG. 3A
Description: as §1

Structure (SMILES)	PAR1-mediated platelet aggregation	PAR1-mediated platelet shape change
Nc1c(F)noc1F [3,5-DFAI, 3,5-difluoro aminoisoxazole]	inhibited	inhibited

Same assay, conditions: in the presence of compound 1; FIG. 3A

Structure (SMILES)	shape change that occurred in the presence of compound 1
C[C@@H](N)[C@H]1CC[C@H](C(=O)Nc2ccncc2)CC1 [Compound Y27632]	blocked
